In US20110112133A1, “DIHYDRO PYRROLOQUINOLINE DERIVATIVES” (Takeda Pharmaceutical Company Limited, priority 2009, published 2011):

What was measured:
[1] = molecular target: T1, hNK2 receptor (Homo sapiens, UniProt P21452); assay: Antagonistic activity determined by intracellular calcium concentration using neurokinin A and hNK2 receptor-expressing CHO cell (FLIPR); assay type: cell-based; settings: neurokinin A stimulation; for inhibition at 10 µM / inhibition at 1 µM / inhibition at 0.1 µM / inhibition at 0.01 µM: CHO, read-out: Antagonistic activity (inhibitory rate (%))
T1 construct: host or cells: CHO cells
T1 sequence (P21452 1-398): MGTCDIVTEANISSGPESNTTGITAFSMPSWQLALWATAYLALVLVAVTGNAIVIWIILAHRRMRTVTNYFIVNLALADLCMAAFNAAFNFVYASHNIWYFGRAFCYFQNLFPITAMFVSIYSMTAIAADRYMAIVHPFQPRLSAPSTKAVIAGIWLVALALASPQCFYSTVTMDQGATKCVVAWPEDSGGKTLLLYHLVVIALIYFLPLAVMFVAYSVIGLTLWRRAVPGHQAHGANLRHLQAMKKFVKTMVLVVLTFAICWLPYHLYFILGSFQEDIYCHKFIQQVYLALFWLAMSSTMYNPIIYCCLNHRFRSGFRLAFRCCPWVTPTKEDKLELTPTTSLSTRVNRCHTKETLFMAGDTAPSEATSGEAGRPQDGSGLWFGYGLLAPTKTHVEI
Protocol: Evaluation of Antagonistic Activity Determined by Intracellular Calcium Concentration Using Test Compound, Neurokinin A and hNK2 Receptor-Expressing CHO Cell
hNK2 receptor-expressing CHO cells were seeded on a 384 well plate at 7.5×10^3 cells/well and cultured for 24 hr. Then the medium was removed, 1× recording medium (30 μL, Calcium kit II-Fluo 4: DOJINDO LABORATORIES, Japan) containing prepared 2.5 μg/mL Fluo 4, 2.5 mM probenecid and 20 mM HEPES was added, and the cells were cultured in CO2 incubator (37° C., 5% CO2) for 1 hr. A test compound diluted with 1× recording medium containing 0.05% bovine serum albumin and 20 mM HEPES (10 μL, 0.6% dimethyl sulfoxide) was added. Thereafter, 3 nM neurokinin A solution (20 μL) was added, and changes in the intracellular calcium concentration were measured by FLIPR (Molecular Devices Corporation, Japan). The inhibitory rate of the test compound was calculated with a reaction using DMSO alone and free of the compound as […] and a reaction using 1 nM NKA as 0% inhibition.

[2] = molecular target: T1, hNK2 receptor; assay: Radioligand receptor binding inhibitory activity using membrane fraction of hNK2 receptor-expressing CHO cell ([125I]-NKA); settings: for inhibition at 10 µM: test compound 10^−5 M; for inhibition at 10 µM / inhibition at 1 µM / inhibition at 0.1 µM / inhibition at 0.01 µM: read-out: hNK2 receptor binding inhibitory activity (inhibitory rate (%))
Protocol: Radioligand Receptor Binding Inhibitory Activity Using Membrane Fraction of hNK2 Receptor-Expressing CHO Cell
hNK2 receptor-expressing CHO cells (produced by EUROSCREEN) were cultured in a flask placed HAM-F12 medium containing 400 μg/mL Geneticin, 100 U/mL penicillin, 100 μg/mL streptomycin and 10% inactivated serum. The medium was removed and adhered cells were washed with PBS, and PBS containing 5 mM EDTA was added to detach the cells from the flask. The cells were recovered by centrifugation, suspended in suspending buffer A (15 mM Tris-HCl (pH 7.5), 12.5 mM MgCl2, 0.3 mM EDTA, 1 mM EGTA (Ethylene Glycol Bis(beta-aminoethylether)-N,N,N,N-tetraacetic Acid)), disrupted by POLYTRON homogenizer (manufactured by KINEMATICA) and centrifuged at 850×g for 10 min at 4° C. The supernatant was recovered and ultracentrifuged at 142000×g for 60 min at 4° C. The precipitated fraction was suspended in suspending buffer B (7.5 mM Tris-HCl (pH 7.5), 12.5 mM MgCl2, 0.3 mM EDTA, 1 mM EGTA, 250 mM sucrose), and cryopreserved (at −80° C.) as a membrane fraction preparation of hNK2 receptor-expressing CHO cell.
The radioligand receptor binding assay was performed in a 96 well microassay plate format with a final volume of 200 μL.
An assay buffer (50 μL, 50 mM Tris-HCl (pH 7.4), 0.02% bovine serum albumin, 2 μg/mL chymostatin, 40 μg/mL bacitracin, 40 μg/mL APMSF, 3 mM MnCl2) was added to a 96 well microassay plate. Thereto was added 50 μL of the above-mentioned cryopreserved membrane fraction preparation suspended in the assay buffer (20 μg/mL). An assay buffer (50 μL) containing 2% dimethyl sulfoxide was added to examine the total binding, 4 μM unlabeled NKA (produced by Peptide Institute, Inc.) solution (50 μL) diluted with an assay buffer containing 2% dimethyl sulfoxide was added to examine non-specific binding, and a test compound diluted with an assay buffer (50 μL, containing 2% dimethyl sulfoxide) was added. Furthermore, […] [^125I]-NKA (produced by NEN) solution (50 μL) was added to each well.
After reaction at room temperature for 30 min, using a cell harvester (manufactured by PerkinElmer), the reaction was stopped by rapid filtration on a unifilter plate (GF/C) (manufactured by PerkinElmer), which had been immersed in 0.3% aqueous polyethyleneimine solution for one day, and the cells were washed 10 times with 50 mM Tris-HCl (pH 7.4) buffer (250 μL) containing 0.02% bovine serum albumin. The GF/C filter plate was dried and 20 μL of MicroScinti-0 (manufactured by PerkinElmer) was added to each well and the radioactivity was measured by TopCount (manufactured by PerkinElmer).
Specific binding is shown by the value obtained by subtracting non-specific binding from the total binding. The binding inhibitory activity of the test compound is shown by the ratio of the value obtained by subtracting the measured value associated with the addition of the test compound from the total binding, to the value of the specific binding.

SMILES | inhibition at 10 µM ([1]; test compound 10^−5 M) [%] | inhibition at 1 µM ([1]; test compound 10^−6 M) [%] | inhibition at 0.1 µM ([1]; test compound 10^−7 M) [%] | inhibition at 0.01 µM ([1]; test compound 10^−8 M) [%] | inhibition at 10 µM [2] [%] | inhibition at 1 µM ([2]; test compound 10^−6 M) [%] | inhibition at 0.1 µM ([2]; test compound 10^−7 M) [%] | inhibition at 0.01 µM ([2]; test compound 10^−8 M) [%] | hNK2 receptor binding inhibitory activity (inhibitory rate (%)) ([2]; test compound 10^−6 M) [%] | hNK2 receptor binding inhibitory activity (inhibitory rate (%)) ([2]; test compound 10^−7 M) [%] | hNK2 receptor binding inhibitory activity (inhibitory rate (%)) ([2]; test compound 10^−8 M) [%] | Antagonistic activity (inhibitory rate (%)) ([1]; test compound 10^−5 M) [%] | Antagonistic activity (inhibitory rate (%)) ([1]; test compound 10^−6 M) [%] | Antagonistic activity (inhibitory rate (%)) ([1]; test compound 10^−7 M) [%] | Antagonistic activity (inhibitory rate (%)) ([1]; test compound 10^−8 M) [%] | hNK2 receptor binding inhibitory activity (inhibitory rate (%)) ([2]; test compound 10^−6 M, hydrochloride) [%] | hNK2 receptor binding inhibitory activity (inhibitory rate (%)) ([2]; test compound 10^−8 M, hydrochloride) [%]
Cc1ccn(-c2ccc(C(=O)N[C@@H]3CCC(F)(F)C[C@@H]3C(=O)N3CCc4c(-c5ccsc5)nc5ccccc5c43)cc2)n1 [Example 7, N-[(1R,2S)-4,4-difluoro-2-{(4-thiophen-3-yl-2,3-dihydro-1H-pyrrolo[3,2-c]quinolin-1-yl)carbonyl]cyclohexyl}-4-(3-methyl-1H-pyrazol-1-yl)benzamide] | 83.7 | 99.3 | 100 | 98.6 | 102 | 100 | 100 | 98.8 | – | – | – | – | – | – | – | – | –
Cc1ccn(-c2ccc(C(=O)N[C@@H]3CCC(F)(F)C[C@@H]3C(=O)N3CCc4c(-c5ncc[nH]5)nc5ccccc5c43)cc2)n1 [Example 1, N-[(1R,2S)-4,4-difluoro-2-{[4-(1H-imidazol-2-yl)-2,3-dihydro-1H-pyrrolo[3,2-c]quinolin-1-yl]carbonyl}cyclohexyl]-4-(3-methyl-1H-pyrazol-1-yl)benzamide] | 88.3 | 102 | 102 | 100 | – | – | – | – | 101.1 | 100.5 | 99.7 | – | – | – | – | – | –
Cc1ccn(-c2ccc(C(=O)N[C@@H]3CCC(F)(F)C[C@@H]3C(=O)N3CCc4c(-c5ccccc5)nc5ccc(F)cc5c43)cc2)n1 [Example 9, N-{(1R,2S)-4,4-difluoro-2-[(8-fluoro-4-phenyl-2,3-dihydro-1H-pyrrolo[3,2-c]quinolin-1-yl)carbonyl]cyclohexyl}-4-(3-methyl-1H-pyrazol-1-yl)benzamide] | 84.1 | 96.7 | 100 | 81.9 | 99.1 | 101 | 99.9 | 93.8 | – | – | – | – | – | – | – | – | –
Cc1ccn(-c2ccc(C(=O)N[C@@H]3CCC(F)(F)C[C@@H]3C(=O)N3CCc4c(-c5ncc[nH]5)nc5ccccc5c43)cc2)n1.Cl [Example 3, N-[(1R,2S)-4,4-difluoro-2-{(4-(1H-imidazol-2-yl)-2,3-dihydro-1H-pyrrolo[3,2-c]quinolin-1-yl]carbonyl}cyclohexyl]-4-(3-methyl-1H-pyrazol-1-yl)benzamide hydrochloride] | – | – | – | – | – | – | – | – | – | 101.4 | – | 86.8 | 102.5 | 102.9 | 100.5 | 101.7 | 100.3
Cc1ccn(-c2ccc(C(=O)N[C@@H]3CCC(F)(F)C[C@@H]3C(=O)N3CCc4c(-c5nccn5COC(=O)C(C)(C)C)nc5ccccc5c43)cc2)n1 [Example 4, [2-(1-{[(1S,2R)-5,5-difluoro-2-({[4-(3-methyl-1H-pyrazol-1-yl)phenyl]carbonyl}amino)cyclohexyl]carbonyl)-2,3-dihydro-1H-pyrrolo[3,2-c]quinolin-4-yl)-1H-imidazol-1-yl]methyl 2,2-dimethylpropanoate] | 91 | 98.7 | 39.5 | -6.8 | – | 80.1 | 31.6 | -7.5 | – | – | – | – | – | – | – | – | –
Cc1ccn(-c2ccc(C(=O)N[C@@H]3CCC(F)(F)C[C@@H]3C(=O)N3CCc4c(-c5ncc[nH]5)nc5ccc(F)cc5c43)cc2)n1 [Example 5, N-[(1R,2S)-4,4-difluoro-2-{[8-fluoro-4-(1H-imidazol-2-yl)-2,3-dihydro-1H-pyrrolo[3,2-c]quinolin-1-yl]carbonyl}cyclohexyl]-4-(3-methyl-1H-pyrazol-1-yl)benzamide] | 87.1 | 100 | 102 | 100 | – | – | – | – | 100.8 | 99.8 | 96.6 | – | – | – | – | – | –
Br.Cc1ccn(-c2ccc(C(=O)N[C@@H]3CCC(F)(F)C[C@@H]3C(=O)N3CCc4c(-c5ncc[nH]5)nc5ccccc5c43)cc2)n1 [Example 2, N-[(1R,2S)-4,4-difluoro-2-{[4-(1H-imidazol-2-yl)-2,3-dihydro-1H-pyrrolo[3,2-c]quinolin-1-yl]carbonyl}cyclohexyl]-4-(3-methyl-1H-pyrazol-1-yl)benzamide hydrobromide] | – | – | – | – | – | – | – | – | 100.7 | 99.7 | 99.6 | 88.8 | 102.2 | 102.8 | 100.4 | – | –
